Measured values published in US12590106B2, “Spiromacrocyclic orexin 2 receptor agonists” (H. Lundbeck A/S, priority 2023, dated 2026).

Biological target: T1, human Ox2R (Homo sapiens, UniProt O43614)
T1 construct: The gene encoding hOx2R was subcloned into the expression plasmid pcDNA5/FRT/TO; expressed in transfected cells; host or cells: CHO Flp-In cells (pcDNA5/FRT/TO with pOG44 Flp recombinase vector, hygromycin B selection)
T1 sequence (O43614 1-444): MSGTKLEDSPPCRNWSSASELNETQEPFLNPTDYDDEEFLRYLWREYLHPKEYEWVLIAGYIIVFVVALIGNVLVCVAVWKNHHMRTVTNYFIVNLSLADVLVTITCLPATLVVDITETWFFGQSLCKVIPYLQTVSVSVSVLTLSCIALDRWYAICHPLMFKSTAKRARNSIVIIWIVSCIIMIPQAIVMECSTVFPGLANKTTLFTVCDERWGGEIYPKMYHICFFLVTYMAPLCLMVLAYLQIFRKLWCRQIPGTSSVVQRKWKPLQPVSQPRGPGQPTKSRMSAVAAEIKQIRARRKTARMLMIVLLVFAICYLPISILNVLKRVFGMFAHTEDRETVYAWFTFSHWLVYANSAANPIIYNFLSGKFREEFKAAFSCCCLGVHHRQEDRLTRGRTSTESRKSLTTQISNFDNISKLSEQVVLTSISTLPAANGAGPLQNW
Experiment: Measurement of OX2R agonist activity (cell-based calcium release assay)
Conditions: hOx2R-CHO Flp-In cells, n≥2 tests; for EC50: intracellular calcium, read-out: EC50; for Emax: normalized to assay buffer (0%) and 10 μM Danavorexton (100%), read-out: Emax (%)
From the text: Measurement of OX2R Agonist Activity
The Ox2R has a broad signaling profile and couple to a range of different Gα-proteins. The cell-based calcium release assay is primarily assessing signaling through the Gαq signaling pathway, which promotes calcium mobilization via inositol triphosphate production upon activation of Ox2R.
A CHO Flp-In cell-line stably expressing the human Ox2R (hOx2R-CHO Flp-In) was established as follows: The gene encoding hOx2R was subcloned into the expression plasmid pcDNA5/FRT/TO and then transfected into CHO Flp-In cells together with the Flp recombinase vector, pOG44. Cells were cultured in growth medium: Ham's F12 (Gibco), 10% fetal bovine serum (Gibco) and 100 U/mL penicillin-streptomycin (Gibco) supplemented with hygromycin B (Thermo Fisher Scientific) as selection marker at 37° C. in the presence of 5% CO2.
To prepare the hOx2R-CHO FlpIn cells for calcium release assay, the cells were suspended in growth medium and seeded in black, clear-bottomed 384-well plates (Corning) at 10,000 cells/well. The plated cells were grown overnight at 37° C. and 5% CO2. The following day, the media was removed, and the cells were incubated with assay buffer (HBSS with 20 mM HEPES, pH 7.4) containing 2.5 mM probenecid (Thermo Fisher Scientific), 10 mM CaCl2, 0.1% pluronic F68 (Gibco) and 1× calcium-4 dye (Molecular Devices) for 1 h at 37° C. and 5% CO2. After incubation, cells were allowed to equilibrate at room temperature for 15 minutes and then loaded into FDSS7000Ex system (Hamamatsu Photonics) together with a plate containing test compounds serially diluted in assay buffer. Cells were stimulated with test compounds (online injection) and the agonist activity was determined as an increase in intracellular calcium concentration measured from the ratio of fluorescence emission at 542 nm by excitation at 480 nm. The agonist response for each applied concentration was assessed as the ratio: maximum fluorescence/average pre-stimulated fluorescence and was normalized to responses from assay buffer alone (0% response) and 10 μM Danavorexton (100% response). EC50 and Emax values were calculated from concentration-response curves by using Genedata Screener software.

| SMILES | EC50 [nM] | Emax [%] |
| --- | --- | --- |
| Cc1nc2c(s1)-c1cc(ccc1F)C[C@@]1(CC[C@H](NS(C)(=O)=O)C1)c1nc(co1)CO2 [Example 102, N-[(1′S,13R)-18-fluoro-4-methyl-spiro[7,11-dioxa-3-thia-5,20-diazatetracyclo[13.3.1.19,12.02,6]icosa-1(18),2(6),4,9,12(20),15(19),16-heptaene-13,3′-cyclopentane]-1′-yl]methanesulfonamide] | 2.1 | 110 |
| CS(=O)(=O)N[C@H]1CC[C@@]2(Cc3ccc(C(F)(F)F)c(c3)-c3cccc(F)c3OCc3coc2n3)C1 [Example 23, N-[(1′S,14R)-6-fluoro-19-(trifluoromethyl)spiro[8,12-dioxa-21-azatetracyclo[14.3.1.110,13.02,7]henicosa-1(19),2,4,6,10,13(21),16(20),17-octaene-14,3′-cyclopentane]-1′-yl]methanesulfonamide] | 1.3 | 98 |
| CS(=O)(=O)N[C@@H]1CC[C@]2(Cc3cc(c(F)cc3F)-c3cccc(F)c3OCc3coc2n3)C1 [Example 107, N-[(1′R,14S)-6,17,19-trifluorospiro[8,12-dioxa-21-azatetracyclo[14.3.1.110,13.02,7]henicosa-1(19),2,4,6,10,13(21),16(20),17-octaene-14,3′-cyclopentane]-1′-yl]methanesulfonamide] | 2.6 | 100 |
| CC1Oc2ccccc2-c2cccc(c2)C[C@@]2(CC[C@H](NS(C)(=O)=O)C2)c2nccc1n2 (single isomer, unassigned) [Example 88, N-[(1′S,9R*,15R)-9-methylspiro[8-oxa-13,22-diazatetracyclo[15.3.1.110,14.02,7]docosa-1(21),2,4,6,10,12,14(22),17,19-nonaene-15,3′-cyclopentane]-1′-yl]methanesulfonamide] | 1600 | 88 |
| CCS(=O)(=O)N[C@H]1CC[C@@]2(Cc3ccc(F)c(c3)-c3ccc(F)c(F)c3OCc3coc2n3)C1 [Example 35, N-[(1′S,14R)-5,6,19-trifluorospiro[8,12-dioxa-21-azatetracyclo[14.3.1.110,13.02,7]henicosa-1(19),2,4,6,10,13(21),16(20),17-octaene-14,3′-cyclopentane]-1′-yl]ethanesulfonamide] | 1.4 | 100 |
| CS(=O)(=O)N[C@H]1CC[C@]2(CC1)Cc1cccc(c1)-c1cccc(F)c1OCc1coc2n1 [Example 75, N-(cis)-(6-fluorospiro[8,12-dioxa-21-azatetracyclo[14.3.1.110,13.02,7]henicosa-1(20),2,4,6,10,13(21),16,18-octaene-14,4′-cyclohexane]-1′-yl)methanesulfonamide] | 1.4 | 100 |
| CS(=O)(=O)N[C@H]1CC[C@@]2(Cc3cc(ccc3F)-c3ccc(F)c(F)c3OCc3coc2n3)C1 [Example 28, N-[(1′S,14R)-5,6,17-trifluorospiro[8,12-dioxa-21-azatetracyclo[14.3.1.110,13.02,7]henicosa-1(19),2,4,6,10,13(21),16(20),17-octaene-14,3′-cyclopentane]-1′-yl]methanesulfonamide] | 6 | 99 |
| CS(=O)(=O)N[C@H]1CC[C@@]2(CO[C@H]3CC[C@H](CC3)c3ccccc3OCc3nc2no3)C1 [Example 65, N-[(1s,1′S,14R,17s)-spiro[8,11,16-trioxa-12,22-diazatetracyclo[15.2.2.110,13.02,7]docosa-2,4,6,10(22),12-pentaene-14,3′-cyclopentane]-1′-yl]methanesulfonamide] | 45 | 99 |
| CS(=O)(=O)N[C@H]1CC[C@@]2(Cc3cccc(n3)-c3ccccc3OCc3coc2n3)C1 [Example 80, N-[(1′S,14S)-spiro[8,12-dioxa-20,21-diazatetracyclo[14.3.1.110,13.02,7]henicosa-1(20),2,4,6,10,13(21),16,18-octaene-14,3′-cyclopentane]-1′-yl]methanesulfonamide] | 9900 | 66 |

Stronger by EC50, values ahead:

| EC50 [nM] | Emax [%] | SMILES |
| --- | --- | --- |
| 0.1 | 97 | O=S(=O)(N[C@H]1CC[C@@]2(Cc3ccc(F)c(c3)-c3cccc(F)c3OCc3coc2n3)C1)C1CC1 [Example 33, N-[(1′S,14R)-6,19-difluorospiro[8,12-dioxa-21-azatetracyclo[14.3.1.110,13.02,7]henicosa-1(19),2,4,6,10,13(21),16(20),17-octaene-14,3′-cyclopentane]-1′-yl]cyclopropanesulfonamide] |
| 1.1 | 110 | CS(=O)(=O)N[C@H]1CC[C@@]2(Cc3ccc(F)c(c3)-c3ccccc3OCc3ccnc2n3)C1 [Example 90, N-[(1′S,15R)-20-fluorospiro[8-oxa-13,22-diazatetracyclo[15.3.1.110,14.02,7]docosa-1(20),2,4,6,10,12,14(22),17(21),18-nonaene-15,3′-cyclopentane]-1′-yl]methanesulfonamide] |
| 0.48 | 96 | CS(=O)(=O)N[C@H]1CC[C@@]2(Cc3ccc(Cl)c(c3)-c3ccc(F)c(F)c3OCc3coc2n3)C1 [Example 31, N-[(1′S,14R)-19-chloro-5,6-difluoro-spiro[8,12-dioxa-21-azatetracyclo[14.3.1.110,13.02,7]henicosa-1(19),2,4,6,10,13(21),16(20),17-octaene-14,3′-cyclopentane]-1′-yl]methanesulfonamide] |
| 0.68 | 97 | CCS(=O)(=O)N[C@H]1CC[C@@]2(Cc3ccc(F)c(c3)-c3ccccc3OCc3coc2n3)C1 [Example 11, N-[(1′S,14R)-19-fluorospiro[8,12-dioxa-21-azatetracyclo[14.3.1.110,13.02,7]henicosa-1(19),2,4,6,10,13(21),16(20),17-octaene-14,3′-cyclopentane]-1′-yl]ethanesulfonamide] |
| 0.068 | 100 | Cn1cc2c(n1)OCc1coc(n1)[C@]1(CC[C@H](NS(C)(=O)=O)C1)Cc1ccc(F)c-2c1 [Example 81, N-[(1′S,13R)-18-fluoro-4-methyl-spiro[7,11-dioxa-4,5,20-triazatetracyclo[13.3.1.19,12.02,6]icosa-1(18),2,5,9,12(20),15(19),16-heptaene-13,3′-cyclopentane]-1′-yl]methanesulfonamide] |
| 0.19 | 95 | CS(=O)(=O)N[C@H]1CC[C@@]2(Cc3cc(c(F)cc3F)-c3ccccc3OCc3coc2n3)C1 [Example 18, N-[(1′S,14R)-17,19-difluorospiro[8,12-dioxa-21-azatetracyclo[14.3.1.110,13.02,7]henicosa-1(19),2,4,6,10,13(21),16(20),17-octaene-14,3′-cyclopentane]-1′-yl]methanesulfonamide] |
| 0.32 | 100 | CS(=O)(=O)N[C@H]1CC[C@@]2(Cc3ccc(F)c(c3)-c3cc(F)cc(F)c3OCc3ccnc2n3)C1 [Example 91, N-[(1′S,15R)-4,6,20-trifluorospiro[8-oxa-13,22-diazatetracyclo[15.3.1.110,14.02,7]docosa-1(20),2,4,6,10,12,14(22),17(21),18-nonaene-15,3′-cyclopentane]-1′-yl]methanesulfonamide] |
| 0.98 | 96 | CS(=O)(=O)N[C@H]1CC[C@@]2(Cc3cc(c(F)cc3F)-c3cccc(F)c3OCc3nc2ns3)C1 [Example 111, N-[(1′S,14R)-6,17,19-trifluorospiro[8-oxa-11-thia-12,21-diazatetracyclo[14.3.1.110,13.02,7]henicosa-1(19),2,4,6,10(21),12,16(20),17-octaene-14,3′-cyclopentane]-1′-yl]methanesulfonamide] |
